In patent US20260217683A1, “PYRIDAZINONE HETEROCYCLIC COMPOUND MYOSIN II INHIBITOR AND USE THEREOF” (Xizang Haisco Pharmaceutical Co., Ltd., priority 2023, published 2026):
Read-outs that look alike come from different tables or passages of the source.

Key:
Assay type in all cases: biochemical
[1] = tested on: rabbit skeletal muscle myosin; assay: Inhibition of hydrolysis of ATP by rabbit skeletal muscle myosin
Method: The purpose of this test was to evaluate the ability of compounds to inhibit the hydrolysis of ATP by rabbit skeletal muscle myosin. The determination method was as follows:
• Preformed F-actin filaments (#AKF99-B, Cytoskeleton) were diluted to 1 mg/mL with Reaction buffer (25 mM Tris-HCL, pH 7.5+35 mM KCl+0.1 mM EGTA+1 mM MgCl2); • Rabbit myosin (#MYO2-A, Cytoskeleton) was diluted to 0.1 mg/mL with Resuspension buffer (15 mM Tris-HCL, PH7.5+0.2 M KCl+1 mM MgCl2); • ATP (#BSA04-001, Cytoskeleton) was diluted to 3 mM working solution with 15 mM Tris-HCL (PH=7.5);
• adding 13 μL reaction buffer+12 μL F-actin to actin control wells; • adding 10 μL reaction buffer+12 μL F-actin+3 μL myosin II to positive control wells; • adding 10 μL of compound working solution+12 μL of F-actin+3 μL of myosin II to the compound wells; • adding 5 μL of ATP working solution to all test wells to start the reaction, and simultaneously adding a sample to the Pi standard wells according to the instruction (#BK054, Cytoskeleton); • gently mixing and accurately incubating at 37° C. for 60 min; • adding 70 μL of CytoPhos Reagent (#BK054, Cytoskeleton) to each well and incubating for 10 min to stop the reaction.
• the OD value of each well was detected at 650 nm using the endpoint method. The standard curve was fitted according to Pi concentration and OD value, and the Pi concentration of each test well was obtained. Inhibition (%)=(Pi positive control well-Pi test well)/Pi positive control well*100%. The Inhibition %-[…] curve was fitted with Graphpad Prism 8 software, and IC50 was calculated.

cardiac myosin SII = target: T1, cardiac myosin SII (Bos taurus, UniProt Q9BE39); assay: Inhibition of hydrolysis of ATP by cardiac myosin SII; settings: 100 μM compound
T1 construct: purchased Cytoskeleton #MYO3-A
T1 sequence (Q9BE39 whole entry): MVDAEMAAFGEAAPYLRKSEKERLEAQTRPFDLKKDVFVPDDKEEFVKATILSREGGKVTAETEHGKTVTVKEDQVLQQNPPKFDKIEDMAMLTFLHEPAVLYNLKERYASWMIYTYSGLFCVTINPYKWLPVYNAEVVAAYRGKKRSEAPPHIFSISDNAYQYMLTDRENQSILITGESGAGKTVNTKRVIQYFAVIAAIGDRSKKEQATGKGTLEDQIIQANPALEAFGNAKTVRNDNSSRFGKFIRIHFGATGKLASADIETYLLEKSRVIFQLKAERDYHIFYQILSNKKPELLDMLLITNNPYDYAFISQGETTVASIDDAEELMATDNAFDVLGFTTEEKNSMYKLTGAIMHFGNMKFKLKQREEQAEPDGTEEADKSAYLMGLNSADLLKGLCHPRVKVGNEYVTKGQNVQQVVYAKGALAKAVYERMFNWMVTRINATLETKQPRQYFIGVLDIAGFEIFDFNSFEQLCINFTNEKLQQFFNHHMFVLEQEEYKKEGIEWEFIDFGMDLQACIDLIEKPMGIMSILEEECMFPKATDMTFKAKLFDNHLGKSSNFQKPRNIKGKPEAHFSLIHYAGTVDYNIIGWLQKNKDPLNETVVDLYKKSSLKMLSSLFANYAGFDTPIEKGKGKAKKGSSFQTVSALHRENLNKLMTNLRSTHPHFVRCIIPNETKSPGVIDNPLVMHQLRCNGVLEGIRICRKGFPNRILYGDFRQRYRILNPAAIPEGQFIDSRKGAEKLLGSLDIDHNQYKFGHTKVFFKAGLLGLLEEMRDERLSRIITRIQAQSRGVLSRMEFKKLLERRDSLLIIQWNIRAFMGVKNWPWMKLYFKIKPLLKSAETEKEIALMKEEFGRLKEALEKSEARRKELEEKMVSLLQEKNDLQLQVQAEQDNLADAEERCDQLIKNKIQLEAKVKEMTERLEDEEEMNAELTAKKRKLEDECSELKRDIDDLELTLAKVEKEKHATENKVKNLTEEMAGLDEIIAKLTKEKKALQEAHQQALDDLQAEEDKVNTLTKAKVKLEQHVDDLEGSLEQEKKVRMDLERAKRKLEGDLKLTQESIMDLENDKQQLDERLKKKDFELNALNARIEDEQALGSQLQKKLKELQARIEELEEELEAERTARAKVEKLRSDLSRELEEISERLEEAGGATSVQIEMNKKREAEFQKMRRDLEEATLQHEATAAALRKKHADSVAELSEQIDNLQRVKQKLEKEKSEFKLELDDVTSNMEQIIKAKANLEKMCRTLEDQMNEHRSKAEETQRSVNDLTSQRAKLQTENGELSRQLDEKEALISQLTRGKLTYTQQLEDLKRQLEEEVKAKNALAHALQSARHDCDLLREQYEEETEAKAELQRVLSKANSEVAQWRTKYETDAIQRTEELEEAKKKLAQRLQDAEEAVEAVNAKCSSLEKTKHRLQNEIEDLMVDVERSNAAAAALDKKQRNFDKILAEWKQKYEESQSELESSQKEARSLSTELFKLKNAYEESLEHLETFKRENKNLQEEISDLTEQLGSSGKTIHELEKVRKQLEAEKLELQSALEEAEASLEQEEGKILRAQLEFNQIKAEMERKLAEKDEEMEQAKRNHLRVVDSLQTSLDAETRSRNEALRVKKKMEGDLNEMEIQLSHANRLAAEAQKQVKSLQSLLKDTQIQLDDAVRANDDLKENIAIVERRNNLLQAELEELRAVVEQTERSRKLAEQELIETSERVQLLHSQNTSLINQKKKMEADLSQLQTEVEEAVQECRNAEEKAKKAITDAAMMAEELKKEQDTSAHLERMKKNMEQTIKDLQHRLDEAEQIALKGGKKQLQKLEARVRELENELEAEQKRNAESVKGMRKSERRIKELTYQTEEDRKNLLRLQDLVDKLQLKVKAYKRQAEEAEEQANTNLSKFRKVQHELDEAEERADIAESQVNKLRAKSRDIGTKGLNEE
T1 sequence (P85100 whole entry partner): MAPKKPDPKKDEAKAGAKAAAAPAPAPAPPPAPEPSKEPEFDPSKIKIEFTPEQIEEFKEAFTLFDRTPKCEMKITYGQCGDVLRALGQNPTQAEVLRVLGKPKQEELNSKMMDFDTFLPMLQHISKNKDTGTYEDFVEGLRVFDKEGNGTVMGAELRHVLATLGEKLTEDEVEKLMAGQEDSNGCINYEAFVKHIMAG
T1 sequence (Q3SZE5 whole entry partner): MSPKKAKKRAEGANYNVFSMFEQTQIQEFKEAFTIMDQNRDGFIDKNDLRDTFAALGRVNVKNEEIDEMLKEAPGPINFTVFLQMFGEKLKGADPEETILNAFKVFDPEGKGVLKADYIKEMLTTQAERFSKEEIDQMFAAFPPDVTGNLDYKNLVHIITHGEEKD
Method: The purpose of this test was to evaluate the ability of compounds to inhibit the hydrolysis of ATP by cardiac myosin SII. The determination method was as follows: • 1. Solution formulation: • Preformed F-actin filaments (#AKF99-B, Cytoskeleton) were diluted to 1 mg/mL with Reaction buffer (15 mM Tris-HCL. PH7.5+10 mM KCl+0.1 mM EGTA+2 mM MgCl2); • Cardiac Muscle myosin (#MYO3-A, Cytoskeleton) was diluted to 1 mg/mL with Resuspension buffer (15 mM Tris-HCL, PH7.5+0.2M KCl+1 mM MgCl2); • ATP (#BSA04-001, Cytoskeleton) was diluted to 3 mM working solution with 15 mM Tris-HCL (PH=7.5); • 2. Formulation of working solution of compounds: the final compound concentration was 100 μM • 3. Experimental steps: • adding 10 μL of compound working solution+12 μL of Preformed F-actin filaments+3 μL of Cardiac Muscle myosin to the compound wells; • adding 10 μL of reaction buffer containing DMSO+12 μL Preformed F-actin filaments +3 μL Cardiac Muscle myosin to positive control wells; • adding 10 μL of reaction buffer containing DMSO+12 μL Preformed F-actin filaments +3 μL Resuspension buffer to negative control wells; • adding 5 μL of 3 mM ATP working solution to all test wells to start the reaction, gently mixing and incubating at 37° C. for 2 h; • after the reaction was completed, taking 6 μL of reaction liquid, adding 24 μL of reaction buffer for 5-fold dilution, then detecting the content of the product Pi with a phosphate kit (#BK054, Cytoskeleton); • adding a sample to Pi standard wells according to the instructions; • adding 70 μL of CytoPhos Reagent (#BK054, Cytoskeleton) to each well and incubating at room temperature for 10 min before detection. • 4. Detection: • the OD value of each well was detected at 650 nm. The standard curve was fitted according to Pi standard concentration and OD value, and the Pi concentration of each test well was obtained. Inhibition (%)=(positive control well−test well)/positive control well*100%.

smooth muscle myosin S1 = target: T2, smooth muscle myosin S1 (Gallus gallus, UniProt P10587); assay: Inhibition of hydrolysis of ATP by smooth muscle myosin S1 fragments; settings: 100 μM compound
T2 construct: purchased Cytoskeleton #CS-MYS05
T2 sequence (P10587 84-789 limits assumed): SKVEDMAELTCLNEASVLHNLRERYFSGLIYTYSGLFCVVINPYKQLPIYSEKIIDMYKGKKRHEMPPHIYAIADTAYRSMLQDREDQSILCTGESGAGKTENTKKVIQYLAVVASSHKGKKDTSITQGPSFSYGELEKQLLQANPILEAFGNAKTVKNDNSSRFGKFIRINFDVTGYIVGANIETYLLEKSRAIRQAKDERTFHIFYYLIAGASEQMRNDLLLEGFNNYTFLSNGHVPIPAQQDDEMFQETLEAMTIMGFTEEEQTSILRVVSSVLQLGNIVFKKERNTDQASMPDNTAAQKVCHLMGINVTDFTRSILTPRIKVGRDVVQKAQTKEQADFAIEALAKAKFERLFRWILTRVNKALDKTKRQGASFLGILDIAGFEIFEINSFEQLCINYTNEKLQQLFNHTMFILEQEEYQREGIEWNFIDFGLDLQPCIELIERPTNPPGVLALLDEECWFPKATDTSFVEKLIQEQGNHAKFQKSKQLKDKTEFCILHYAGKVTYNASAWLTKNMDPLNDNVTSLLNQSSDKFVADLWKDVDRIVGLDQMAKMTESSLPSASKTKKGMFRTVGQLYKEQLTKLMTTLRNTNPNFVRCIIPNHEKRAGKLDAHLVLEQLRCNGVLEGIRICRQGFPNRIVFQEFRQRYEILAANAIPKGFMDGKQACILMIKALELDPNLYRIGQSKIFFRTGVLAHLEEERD
T2 sequence (P02607 whole entry partner, the tested form may be a part): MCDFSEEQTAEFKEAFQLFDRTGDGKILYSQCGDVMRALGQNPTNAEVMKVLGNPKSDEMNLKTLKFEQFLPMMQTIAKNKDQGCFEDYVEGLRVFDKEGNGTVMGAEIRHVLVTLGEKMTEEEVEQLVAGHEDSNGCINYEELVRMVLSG
Method: The purpose of this test was to evaluate the ability of compounds to inhibit the hydrolysis of ATP by smooth muscle myosin Si fragments. The determination method was as follows: • 1. Solution formulation • F-actin polymer: Cardiac Actin powder (#CS-AD99, Cytoskeleton) was dissolved in a buffer (5 mM Pipes-KOH solution, PH=7.0, containing 100 μM ATP and 500 μM DTT) to form a 2 mg/mL solution and the solution was left at room temperature for 30 min; then 2 mM MgCl2 and 2 mM EGTA were added and the obtained system was left at room temperature for 40 min; • Smooth muscle SI fragment (#CS-MYS05, Cytoskeleton) was diluted with a pre-cooled PM12 buffer containing 1 mM DTT (12 mM Pipes-KOH solution, PH=7.0, containing 2 mM MgCl2) to form a 0.7 mg/mL solution; • ATP (#BSA04-001, Cytoskeleton) was diluted to 5 mM working solution with 15 mM Tris-HCL (PH=7.5); • 2. […] Experimental steps: • adding 10 μL of compound working solution+6 μL of F-actin polymer+4 μL of Smooth muscle Si fragment solution to the compound wells; • adding 10 μL of PM12 buffer containing DMSO+6 μL of F-actin polymer+4 μL of Smooth muscle S1 fragment solution to positive control wells; • adding 10 μL of PM12 buffer containing DMSO+6 μL of F-actin polymer+4 μL of PM12 buffer to negative control wells; • adding […] of 5 mM ATP working solution to all test wells to start the reaction, gently mixing and incubating at 37° C. for 20 min; • after the reaction was completed, taking 6 μLL of reaction liquid, adding 24 μL of PM12 buffer for 5-fold dilution, then detecting the content of the product Pi with a phosphate kit (#BK054, Cytoskeleton); • adding a standard according to the instructions, adding 70 μL of CytoPhos Reagent (#BK054, Cytoskeleton) to all wells and incubating at room temperature for 10 min before detection. • 4. Detection: • the OD value of each well was detected at 650 nm. The standard curve was fitted according to Pi standard concentration and OD value, and the Pi concentration of each test well was obtained. Inhibition (%)=(positive control well−test well)/positive control well*100%.

[2] = inhibition of hydrolysis of ATP, class symbols, read-out: Rabbit skeletal muscle myosin (IC50)
[3] = read-out: IC50 for inhibition of hydrolysis of ATP by rabbit skeletal muscle myosin

| IC50 [1, 2] | IC50 [1, 3] | inhibition at 100 µM (cardiac myosin SII) | inhibition at 100 µM (smooth muscle myosin S1) | Compound |
| --- | --- | --- | --- | --- |
| < 2.5 µM | 0.3 µM |  |  | O=c1ccc(-c2cnc(OCC3CC3(F)F)nc2)nn1Cc1ccc2c(c1)CC2 (stereo not shown) [Compound 87] |
| 2.5 to 20 µM |  |  |  | O=C1CCc2c1cc(Cn1nc(-c3cnc(OCC(F)(F)F)nc3)ccc1=O)cc2C1CC1 [Compound 177] |
| < 2.5 µM | 0.5 µM |  |  | O=c1ccc(-c2cnc(OCCF)nc2)nn1Cc1ccc2c(c1)CCC2 [Compound 75] |
| < 2.5 µM | 0.2 µM |  |  | O=c1ccc(-c2cnc(OCC3CC3)nc2)nn1Cc1ccc2c(c1)CC2 [Compound 86] |
| < 2.5 µM | 0.8 µM |  |  | O=c1ccc(-c2cnc(OCC(F)(F)F)nc2)nn1Cc1cc2c(cc1F)CCC2 [Compound 99] |
| < 2.5 µM | 0.2 µM |  |  | O=c1ccc(-c2cnc(OC3CC3)nc2)nn1Cc1ccc2c(c1)CC2 [Compound 82] |
| < 2.5 µM |  |  |  | O=c1ccc(-c2cnc(C3CC3)nc2)nn1Cc1ccc2c(c1)CCC2 [Compound 78] |
| < 2.5 µM |  | 21% |  | O=c1ccc(-c2cnc(OCCCF)nc2)nn1Cc1ccc2c(c1)CCC2 [Compound 71] |
| < 2.5 µM |  |  |  | O=c1ccc(-c2cnc(OCCF)nc2)nn1Cc1ccc2c(c1)CC2 [Compound 66] |
| < 2.5 µM | 0.4 µM | 1% |  | O=c1ccc(-c2cnc(Oc3cncc(Cl)c3)nc2)nn1Cc1ccc2c(c1)CCC2 [Compound 132] |
| < 2.5 µM | 0.2 µM |  |  | O=c1ccc(-c2cnc(OCC(F)(F)F)nc2)nn1Cc1ccc2c(c1)CC=C2 [Compound 138] |
| < 2.5 µM |  |  |  | O=c1ccc(-c2cnc(OCCC(F)F)nc2)nn1Cc1ccc2c(c1)CCC2 [Compound 76] |
| < 2.5 µM | 0.1 µM |  |  | O=c1ccc(-c2cnc(OCC(F)F)nc2)nn1Cc1ccc2c(c1)CC2 [compound 60] |
| 2.5 to 20 µM |  |  |  | O=C1CCc2ccc(Cn3nc(-c4cnc(Oc5cccc(C(F)(F)F)n5)nc4)ccc3=O)cc21 [Compound 144] |
| < 2.5 µM |  |  |  | O=C1CCc2c(Cl)cc(Cn3nc(-c4cnc(Oc5cccc(F)n5)nc4)ccc3=O)cc21 [Compound 174] |
| < 2.5 µM |  |  |  | O=c1ccc(-c2cnc(OCCC(F)(F)F)nc2)nn1Cc1ccc2c(c1)CC2 [Compound 65] |
| < 2.5 µM |  |  |  | CC(c1ccc2c(c1)CC2)n1nc(-c2cnc(OCC(F)(F)F)nc2)ccc1=O (single isomer, unassigned) [Compound 64] |
| < 2.5 µM | 0.3 µM |  | 11% | O=c1ccc(-c2cnc(OCC(F)(F)F)nc2)nn1Cc1ccc2c(c1)C=CC2 [Compound 137] |
| < 2.5 µM | 0.1 µM |  |  | O=c1ccc(-c2cnc(Oc3cncc(F)c3)nc2)nn1Cc1ccc2c(c1)CC2 [Compound 101] |

| IC50 [1, 2] | IC50 [1, 3] | inhibition at 100 µM (cardiac myosin SII) | inhibition at 100 µM (smooth muscle myosin S1) | Compound |
| --- | --- | --- | --- | --- |
| < 2.5 µM | 0.2 µM |  |  | O=c1ccc(-c2cnc(OCC(F)(F)F)nc2)nn1Cc1ccc2c(c1F)CCC2 [Compound 98] |
| 2.5 to 20 µM |  |  |  | CC(c1ccc2c(c1)CC2)n1nc(-c2cnc(OCC(F)(F)F)nc2)ccc1=O (stereo not shown) [Compound 61] |
| < 2.5 µM | 0.2 µM |  |  | O=c1ccc(-c2cnc(O[C@@H]3CCOC3)nc2)nn1Cc1ccc2c(c1)CC2 [Compound 107] |
| < 2.5 µM |  |  | -5% | O=C1CCc2ccc(Cn3nc(-c4cnc(OCC(F)(F)F)nc4)ccc3=O)c(F)c21 [Compound 152] |
| 2.5 to 20 µM |  |  |  | O=C1CCCc2ccc(Cn3nc(-c4cnc(OCC(F)(F)F)nc4)ccc3=O)cc21 [Compound 168] |
| < 2.5 µM |  |  |  | O=c1ccc(-c2cnc(OCCCCl)nc2)nn1Cc1ccc2c(c1)CCC2 [Compound 77] |
| < 2.5 µM | 0.2 µM |  |  | O=c1ccc(-c2cnc(OC3COC3)nc2)nn1Cc1ccc2c(c1)CC2 [Compound 94] |
| 2.5 to 20 µM |  |  |  | O=c1ccc(-c2cnc(OCC(F)(F)F)nc2)nn1Cc1ccc2c(c1)CCC2(F)F [Compound 79] |
| < 2.5 µM | 0.1 µM |  |  | O=c1ccc(-c2cnc(OCCC(F)F)nc2)nn1Cc1ccc2c(c1)CC2 [Compound 68] |
| 2.5 to 20 µM |  |  |  | O=c1cc2c(nn1Cc1ccc3c(c1)CC3)-c1cnc(OC3CCOC3)nc1CC2 (stereo not shown) [Compound 122] |
| < 2.5 µM | 0.1 µM |  |  | O=c1ccc(-c2cnc(OCC(F)F)nc2)nn1Cc1ccc2c(c1)C(F)(F)CC2 [Compound 100] |
| 2.5 to 20 µM |  |  |  | O=c1ccc(-c2cnc(OC3CC(F)(F)C3)nc2)nn1Cc1ccc2c(c1)CCC2 [Compound 85] |
| 2.5 to 20 µM |  |  |  | O=C1CCc2ccc(Cn3nc(-c4cnc(Oc5ccc(F)cn5)nc4)ccc3=O)cc21 [Compound 146] |
| < 2.5 µM | 0.53 µM |  |  | O=C1CCc2c(Cl)cc(Cn3nc(-c4cnc(Oc5cncc(F)c5)nc4)ccc3=O)cc21 [Compound 173] |
| 2.5 to 20 µM |  |  |  | O=C1CCc2ccc(Cn3nc4c(cc3=O)CCc3nc(OCC(F)(F)F)ncc3-4)cc21 [Compound 154] |
| < 2.5 µM |  |  |  | O=c1ccc(-c2cnc(OC3CC(F)(F)C3)nc2)nn1Cc1ccc2c(c1)CC2 [Compound 83] |
| 2.5 to 20 µM |  |  |  | O=C1CCc2ccc(Cn3nc(-c4cnc(Oc5ccnc(C(F)(F)F)c5)nc4)ccc3=O)cc21 [Compound 143] |
| < 2.5 µM | 0.53 µM |  |  | O=C1CCc2c(Cl)cc(Cn3nc(-c4cnc(Oc5cncc(Cl)c5)nc4)ccc3=O)cc21 [Compound 175] |
